Experimental data as given in US9434711B2 (Janssen Pharmaceutica, NV, priority 2007, dated 2016).

Molecular target: canine TRPM8 (Canis lupus familiaris, UniProt Q1A7N1)
Assay: In Vitro Canine TRPM8 Functional Assay (Ca2+ fluorescence, icilin activation)
Type: cell-based
Details: for inhibition at 0.2 µM / % Inh @ 0.2 (μM): compound at 0.2 μM; for inhibition at 0.2 µM / inhibition at 0.5 µM / % Inh @ 0.2 (μM): canine TRPM8, icilin activation; for inhibition at 0.2 µM: read-out: % Inh @ 0.2; for IC50: HEK293 cells stably expressing canine TRPM8, icilin activation, eight-point dose-response, read-out: IC50; for inhibition at 0.5 µM: compound at 0.5 μM, read-out: % Inh @ 0.5
How it was run: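 Canine TRPM8 stably expressed in HEK293; compound added 5 min before icilin challenge (~80% max response), with fluorescent Ca2+ signal tracked throughout.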

Chain of canine TRPM8 (Q1A7N1 1-1104): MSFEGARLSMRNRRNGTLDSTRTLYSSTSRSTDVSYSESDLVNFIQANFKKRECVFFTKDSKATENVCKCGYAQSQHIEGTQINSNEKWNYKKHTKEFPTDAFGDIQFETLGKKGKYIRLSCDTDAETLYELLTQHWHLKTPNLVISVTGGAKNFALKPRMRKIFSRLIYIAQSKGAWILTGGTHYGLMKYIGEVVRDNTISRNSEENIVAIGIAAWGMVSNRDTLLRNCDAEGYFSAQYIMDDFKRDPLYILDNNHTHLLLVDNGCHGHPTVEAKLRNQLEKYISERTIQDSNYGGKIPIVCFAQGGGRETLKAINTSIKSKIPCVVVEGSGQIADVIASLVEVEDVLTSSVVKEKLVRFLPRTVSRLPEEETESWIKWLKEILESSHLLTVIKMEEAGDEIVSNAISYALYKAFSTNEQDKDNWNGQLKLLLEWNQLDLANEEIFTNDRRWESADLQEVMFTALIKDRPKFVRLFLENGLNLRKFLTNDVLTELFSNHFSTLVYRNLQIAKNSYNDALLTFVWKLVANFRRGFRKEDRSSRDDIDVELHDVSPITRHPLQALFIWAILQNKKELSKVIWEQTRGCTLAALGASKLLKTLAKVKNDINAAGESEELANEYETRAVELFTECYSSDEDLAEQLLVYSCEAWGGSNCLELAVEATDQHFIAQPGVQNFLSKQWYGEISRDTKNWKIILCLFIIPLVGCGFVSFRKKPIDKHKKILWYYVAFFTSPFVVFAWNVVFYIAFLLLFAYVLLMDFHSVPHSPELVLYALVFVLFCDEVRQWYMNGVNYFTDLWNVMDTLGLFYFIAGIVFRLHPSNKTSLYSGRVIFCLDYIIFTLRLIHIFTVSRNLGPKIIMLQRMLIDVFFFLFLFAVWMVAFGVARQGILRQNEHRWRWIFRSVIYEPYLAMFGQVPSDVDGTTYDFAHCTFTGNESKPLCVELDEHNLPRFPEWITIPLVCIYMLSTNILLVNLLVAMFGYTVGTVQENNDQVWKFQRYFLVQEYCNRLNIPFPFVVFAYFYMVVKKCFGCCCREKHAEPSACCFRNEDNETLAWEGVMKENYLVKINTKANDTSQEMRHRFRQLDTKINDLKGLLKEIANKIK

| inhibition at 0.2 µM | IC50 | inhibition at 0.5 µM | SMILES | % Inh @ 0.2 (μM) |
| --- | --- | --- | --- | --- |
| 69% | – | – | O=S(=O)(c1cccnc1Cl)N(Cc1ccc(F)c(C(F)(F)F)c1)c1cc2ccccc2s1 [Compound 310, N-(Benzo[b]thiophen-2-yl)-N-(4-fluoro-3-trifluoromethyl-benzyl)-2-chloro-pyridin-3-ylsulfonamide] | – |
| 100% | 12 nM | – | CCCCN(c1sc2ccccc2c1Cl)S(=O)(=O)c1ccc(C(=O)O)cc1 [Compound 477, N-(3-Chloro-benzo[b]thiophen-2-yl)-N-(butyl)-4-carboxy-benzenesulfonamide] | – |
| – | 84 nM | 99% | O=S(=O)(c1ccccc1)N(Cc1ccc(Cl)cc1)c1cc2ccccc2s1 [Compound 46, N-(Benzo[b]thiophen-2-yl)-N-(4-chloro-benzyl)-benzenesulfonamide] | – |
| 102% | 3.3 nM | – | Cc1c(N(Cc2ccc(F)c(C(F)(F)F)c2)S(=O)(=O)c2ccc(-c3nsc(=O)[nH]3)cc2)sc2ccccc12 [Compound 784, N-(3-Methyl-benzo[b]thiophen-2-yl)-N-(4-fluoro-3-trifluoromethyl-benzyl)-4-(5-oxo-4,5-dihydro-[1,2,4]thiadiazol-3-yl)-benzenesulfonamide] | – |
| 69% | 90.3 nM | – | Cc1c(N(CCC2CC2)S(=O)(=O)c2nc3ccccc3[nH]2)sc2ccccc12 [Compound 726, N-(Cyclopropyl-ethyl)-N-(3-methyl-benzo[b]thiophen-2-yl)-1H-benzimidazole-2-sulfonamide] | – |
| 102% | 15.5 nM | – | Cc1c(N(Cc2ccc(F)c(C(F)(F)F)c2)S(=O)(=O)CCO)sc2ccccc12 [Compound 793, N-(4-Fluoro-3-trifluoromethyl-benzyl)-N-(3-methyl-benzo[b]thiophen-2-yl)-2-hydroxy-ethanesulfonamide] | – |
| 101% | 26 nM | – | CC(C)(O)C1=C(N(Cc2ccc(F)c(C(F)(F)F)c2)S(=O)(=O)c2ccccc2)S(=O)(=O)c2ccccc21 [Compound 463, N-(4-Fluoro-3-trifluoromethyl-benzyl)-N-[3-(1-hydroxy-1-methyl-ethyl)-1,1-dioxo-benzo[b]thiophen-2-yl]-benzenesulfonamide] | – |
| 92% | 69.8 nM | – | CC(=O)c1ccc(S(=O)(=O)N(Cc2ccc(F)c(C(F)(F)F)c2)c2cc3ccccc3s2)cc1 [Compound 308, N-(Benzo[b]thiophen-2-yl)-N-(4-fluoro-3-trifluoromethyl-benzyl)-4-acetyl-benzenesulfonamide] | – |
| 104% | 12.2 nM | – | Cc1c(N(CCC(F)(F)F)S(=O)(=O)c2ccc(-c3nsc(=O)[nH]3)cc2)sc2ccccc12 [Compound 637, N-(3-Methyl-benzo[b]thiophen-2-yl)-N-(3,3,3-trifluoro-propyl)-4-(5-oxo-4,5-dihydro-[1,2,4]thiadiazol-3-yl)-benzenesulfonamide] | – |
| 19% | – | – | CCCCN(c1cc2ccccc2s1)S(=O)(=O)NC [Compound 532, N-(Benzo[b]thiophen-2-yl)-N-(butyl)-N′-methyl-sulfamide] | – |
| 71% | 90 nM | – | Cc1c(N(Cc2ccc(F)c(C(F)(F)F)c2)S(=O)(=O)c2cnc(Cl)c(Cl)c2)sc2ccccc12 [Compound 331, N-(3-Methyl-benzo[b]thiophen-2-yl)-N-(4-fluoro-3-trifluoromethyl-benzyl)-5,6-dichloro-pyridin-3-ylsulfonamide] | – |
| 95% | 7.2 nM | – | Cc1c(N(Cc2cccc(OC(F)(F)F)c2)S(=O)(=O)C2CC2)sc2ccccc12 [Compound 770, N-(3-Methyl-benzo[b]thiophen-2-yl)-N-(3-trifluoromethoxy-benzyl)-cyclopropanesulfonamide] | – |
| – | – | 101% | O=[N+]([O-])c1cccc(CN(c2sc3ccccc3c2Br)S(=O)(=O)c2ccccc2)c1 [Compound 167, N-(3-Bromo-benzo[b]thiophen-2-yl)-N-(3-nitro-benzyl)-benzenesulfonamide] | – |
| 21% | – | – | NS(=O)(=O)N(Cc1ccc(F)c(C(F)(F)F)c1)c1cc2ccccc2s1 [Compound 300, N-(Benzo[b]thiophen-2-yl)-N-(4-fluoro-3-trifluoromethyl-benzyl)-sulfamide] | – |
| 100% | 13 nM | – | O=C(O)c1ccc(S(=O)(=O)N(CCC(F)(F)F)c2sc3ccccc3c2Cl)cc1 [Compound 480, N-(3-Chloro-benzo[b]thiophen-2-yl)-N-(3,3,3-trifluoro-propyl)-4-carboxy-benzenesulfonamide] | – |
| 102% | 7 nM | – | CC(O)C1=C(N(Cc2ccc(F)c(F)c2)S(=O)(=O)c2ccccc2)S(=O)(=O)c2ccccc21 (centres unmarked) [Compound 464, N-(3,4-Difluoro-benzyl)-N-[3-(1-hydroxy-ethyl)-1,1-dioxo-benzo[b]thiophen-2-yl]-benzenesulfonamide] | – |
| 101% | 8 nM | – | O=S(=O)(c1ccc(-c2nnn[nH]2)cc1)N(CC1CC1)c1sc2ccccc2c1Br [Compound 474, N-(3-Bromo-benzo[b]thiophen-2-yl)-N-(cyclopropyl-methyl)-4-(1H-tetrazol-5-yl)-benzenesulfonamide] | – |
| 102% | 2.2 nM | – | Cc1c(N(Cc2ccc(OC(F)(F)F)cc2)S(=O)(=O)c2ccc(-c3nnn[nH]3)cc2)sc2ccccc12 [Compound 785, N-(3-Methyl-benzo[b]thiophen-2-yl)-N-(4-trifluoromethoxy-benzyl)-4-(1H-tetrazol-5-yl)-benzenesulfonamide] | – |
| 105% | – | – | O=S(=O)(c1cccs1)N(Cc1ccc(F)c(C(F)(F)F)c1)c1sc2ccccc2c1Cl [Compound 191, N-(3-Chloro-benzo[b]thiophen-2-yl)-N-(4-fluoro-3-trifluoromethyl-benzyl)-thiophene-2-sulfonamide] | – |
| 23% | – | – | Cc1c(N(Cc2ccc(F)c(C(F)(F)F)c2)S(=O)(=O)CC(=O)O)sc2ccccc12 [Compound 792, N-(4-Fluoro-3-trifluoromethyl-benzyl)-N-(3-methyl-benzo[b]thiophen-2-yl)-carboxy-methanesulfonamide] | – |
| 102% | 2 nM | – | O=S(=O)(c1ccc(-c2nnn[nH]2)cc1)N(Cc1ccc(F)c(C(F)(F)F)c1)c1sc2ccccc2c1Br [Compound 475, N-(3-Bromo-benzo[b]thiophen-2-yl)-N-(4-fluoro-3-trifluoromethyl-benzyl)-4-(1H-tetrazol-5-yl)-benzenesulfonamide] | – |
| 29% | – | – | CCS(=O)(=O)N(Cc1ccc(F)c(C(F)(F)F)c1)c1sc2ccccc2c1-c1ccccc1F [Compound 200, N-[3-(2-Fluoro-phenyl)-benzo[b]thiophen-2-yl]-N-(4-fluoro-3-trifluoromethyl-benzyl)-ethanesulfonamide] | – |
| 90% | 2 nM | – | O=C(O)c1ccc(S(=O)(=O)N(CC2CCCC2)c2sc3ccccc3c2Br)cc1 [Compound 438, N-(3-Bromo-benzo[b]thiophen-2-yl)-N-(cyclopentylmethyl)-4-carboxy-benzenesulfonamide] | – |
| 98% | 1.2 nM | 99% | CCS(=O)(=O)N(Cc1ccc(F)c(C(F)(F)F)c1)c1sc2ccccc2c1C(C)O (centres unmarked) [Compound 220, N-(4-Fluoro-3-trifluoromethyl-benzyl)-N-[3-(1-hydroxy-ethyl)-benzo[b]thiophen-2-yl]-ethanesulfonamide] | – |
| – | 16.7 nM | 96% | CS(=O)(=O)N(Cc1ccc(F)c(F)c1)c1sc2ccccc2c1Br [Compound 151, N-(3-Bromo-benzo[b]thiophen-2-yl)-N-(3,4-difluoro-benzyl)-methanesulfonamide] | – |
| 60% | – | – | CCCNCc1c(N(Cc2ccc(F)c(C(F)(F)F)c2)S(=O)(=O)CC)sc2ccccc12 [Compound 348, N-(4-Fluoro-3-trifluoromethyl-benzyl)-N-(3-propylaminomethyl-benzo[b]thiophen-2-yl)-ethanesulfonamide] | – |
| 103% | 33.1 nM | – | CCCCN(c1sc2ccccc2c1Cl)S(=O)(=O)c1ccc(N2CCOCC2)cc1 [Compound 562, N-(3-Chloro-benzo[b]thiophen-2-yl)-N-(butyl)-4-morpholin-4-yl-benzenesulfonamide] | – |
| 102% | 6 nM | – | O=C(O)c1ccc(S(=O)(=O)N(CCC2CC2)c2sc3ccccc3c2Br)c(F)c1 [Compound 709, N-(3-Bromo-benzo[b]thiophen-2-yl)-N-(2-cyclopropyl-ethyl)-2-fluoro-4-carboxy-benzenesulfonamide] | – |
| 86% | 39 nM | – | CN(C)S(=O)(=O)N(CC1CC1)c1sc2ccccc2c1Br [Compound 266, N-(3-Bromo-benzo[b]thiophen-2-yl)-N-(cyclopropylmethyl)-N′,N′-dimethylsulfamide] | – |

| SMILES | inhibition at 0.2 µM | IC50 | inhibition at 0.5 µM | % Inh @ 0.2 (μM) |
| --- | --- | --- | --- | --- |
| NC(=O)c1ccc(S(=O)(=O)N(Cc2ccc(F)c(C(F)(F)F)c2)c2cc3ccccc3s2)cc1 [Compound 413, N-(Benzo[b]thiophen-2-yl)-N-(4-fluoro-3-trifluoromethyl-benzyl)-4-carboxamide-benzenesulfonamide] | – | 46 nM | – | 93% |
| CC(C)(C)OC(=O)N1CCCC1CN(c1sc2ccccc2c1Cl)S(=O)(=O)c1ccccc1 (centres unmarked) [Compound 89, N-(3-Chloro-benzo[b]thiophen-2-yl)-N-{[1-(carbo-tert-butoxy)pyrrolidin-2-yl]-methyl}-benzenesulfonamide] | – | – | 96% | – |
| O=C(O)c1ccc(S(=O)(=O)N(CCC(F)(F)F)c2cc3ccccc3s2)c(F)c1 [Compound 639, N-(3-Benzo[b]thiophen-2-yl)-N-(3,3,3-trifluoro-propyl)-2-fluoro-4-carboxy-benzenesulfonamide] | – | 128 nM | – | 84% |
